The results in this text go back to patent publication US7879838B2, “Heteroaryl substituted pyrazinyl-piperazine-piperidines with CXCR3 antagonist activity” (Schering Corporation, priority 2005, dated 2011).

The assay concerns the target T1, Human CXCR3 (N-delta 4) (Homo sapiens, UniProt P49682).
T1 construct: CD8 leader (N); Flag tag; expressed in transfected cells; membranes prepared
T1 sequence (P49682 5-368 limits assumed): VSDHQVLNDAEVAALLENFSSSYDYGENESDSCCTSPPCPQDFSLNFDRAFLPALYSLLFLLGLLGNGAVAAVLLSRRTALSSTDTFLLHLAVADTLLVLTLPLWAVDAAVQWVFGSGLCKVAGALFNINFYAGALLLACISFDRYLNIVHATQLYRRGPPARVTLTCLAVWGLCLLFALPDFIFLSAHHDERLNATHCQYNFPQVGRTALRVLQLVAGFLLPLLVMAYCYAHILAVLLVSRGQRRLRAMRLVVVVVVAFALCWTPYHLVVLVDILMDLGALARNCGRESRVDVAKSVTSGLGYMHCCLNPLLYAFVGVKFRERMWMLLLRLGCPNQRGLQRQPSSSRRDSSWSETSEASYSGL
Briefly: Human CXCR3 (N-delta 4) scintillation proximity assay (SPA), [125I] IP-10 binding to Ba/F3-hCXCR3 membranes. The following applies: IC50 rating; 25 pM [125I] IP-10, membranes of Ba/F3 cells expressing human CXCR3 (N-delta 4). Summed up: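 Membranes from Ba/F3 pro-B cells stably expressing Flag-tagged hCXCR3 (N-delta 4), 2 μg per point, prebound 1 hr to WGA SPA beads in HEPES buffer with CaCl2, MgCl2, NaCl, 1.0% BSA. Competition with 25 pM [125I] IP-10 and titrated compounds, 3 hr at room temperature; bound radioligand counted; […].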
(In general: Scintillation proximity formats need no separation of bound from free tracer.)

By IC50 is commonly meant the concentration that inhibits the measured activity by half. A higher IC50 goes with lower potency. On to `CC[C@H]1CN(c2nc(N)c(C(=O)NCCO)nc2Cl)CCN1C1CCN(C(=O)c2ccc(C)nc2Cl)CC1` [compound 138], for which the concentration for half-maximal inhibition (IC50) was over 100 nM.
In the case of `CC[C@H]1CN(c2nc(N)c(C(=O)NC3CC3)nc2Cl)CCN1C1CCN(C(=O)c2sc(C)nc2C)CC1` [compound 139], the IC50 was over 100 nM.
With `CC[C@H]1CN(c2nc(N)c(C(=O)NC)nc2Cl)CCN1C1CCN(Cc2coc3ccc(Cl)cc3c2=O)CC1` [compound 140], the IC50 is under 25 nM.
`CC[C@H]1CN(c2nc(N)c(C(=O)NC3CC3)nc2Cl)CCN1C1CCN(Cc2cc(-c3ccccc3)oc2C)CC1` [compound 141] displayed an IC50 of under 25 nM.
Compound `CC[C@H]1CN(c2nc(N)c(C(N)=O)nc2Cl)CCN1C1CCN(Cc2ccc(Cl)c3nc(C(F)(F)F)[nH]c23)CC1` [compound 142] had an IC50 of over 100 nM.
`CC[C@H]1CN(c2nc(N)c(C(N)=O)nc2Cl)CCN1C1CCN(Cc2ccc(Cl)c3[nH]c(=O)[nH]c23)CC1` [compound 143]: the half-maximal inhibitory concentration (IC50) was over 100 nM.
As for `CC[C@H]1CN(c2nc(N)c(C(=O)NC)nc2Cl)CCN1C1CCN(Cc2coc3cc(C)c(Cl)cc3c2=O)CC1` [compound 144], the figure is under 25 nM.
Regarding `CC[C@H]1CN(c2nc(N)c(C(=O)NC3CC3)nc2Cl)CCN1C1CCN(Cc2cnc(-c3ccccc3)nc2C)CC1` [compound 145], the IC50 is over 100 nM.
For `CC[C@H]1CN(c2nc(N)c(C(N)=O)nc2Cl)CCN1C1CCN(C2OC(C(=O)N(C)C)c3cc(Cl)ccc32)CC1` (stereo partly shown) [compound 147], the half-maximal inhibitory concentration (IC50) was in the range of 25 to 100 nM.
`CC[C@H]1CN(c2nc(N)c(C(=O)NCCO)nc2Cl)CCN1C1CCN(C2CCOc3cc(C#N)ccc32)CC1` (stereo partly shown) [compound 148]: the IC50 was over 100 nM.
To `CC[C@H]1CN(c2nc(N)c(C(=O)Nc3ccc(Cl)cc3)nc2Cl)CCN1C1CCN(C(=O)c2ccc(Cl)nc2N)CC1` [compound 149] belongs under 25 nM; to `CC[C@H]1CN(c2nc(N)c(C(N)=O)nc2Cl)CCN1C1CCN(C2OC(C(=O)N(C)C)c3cc(Cl)ccc32)CC1` (stereo partly shown) [compound 151], 25 to 100 nM; to `CC[C@H]1CN(c2nc(N)c(C(N)=O)nc2Cl)CCN1C1CCN(C(=O)c2ccc(Cl)c3cc[nH]c23)CC1` [compound 152], over 100 nM.
The compound `CC[C@H]1CN(c2nc(N)c(C(N)=O)nc2Cl)CCN1C1CCN(Cc2ccc(Cl)c3nn[nH]c23)CC1` [compound 153] gave an IC50 of over 100 nM.
`CC[C@H]1CN(c2ncc(C(=O)NC3CC3)nc2C)[C@H](C)CN1C1CCN(C(=O)c2ccc(Cl)nc2N)CC1` [compound 159] had a half-inhibitory concentration (IC50) of under 25 nM.
With `CCNC(=O)c1cnc(N2C[C@H](CC)N(C3CCN(C(=O)c4ccc(Cl)nc4N)CC3)C[C@H]2C)c(C)n1` [compound 160], the IC50 was under 25 nM.
In turn, `CC[C@H]1CN(c2ncc(C(=O)OC)nc2C)CCN1C1CCN(C(=O)c2ccc(Cl)nc2N)CC1` [compound 161] gave an IC50 of under 25 nM.
Turning to `CC[C@H]1CN(c2nc(N)c(C(N)=O)nc2C)CCN1C1CCN(C(=O)c2ccc(Cl)nc2N)CC1` [compound 162], the IC50 is under 25 nM.
To `CC[C@H]1CN(c2ncc(C(=O)NC)nc2C)[C@H](C)CN1C1CCN(C(=O)c2ccc(Cl)nc2N)CC1` [compound 163] belongs under 25 nM; to `CC[C@H]1CN(c2ncc(C(=O)OC)nc2C)[C@H](C)CN1C1CCN(C(=O)c2ccc(Cl)nc2N)CC1` [compound 164], under 25 nM; to `CC[C@H]1CN(c2ncc(C(N)=O)nc2C)CCN1C1CCN(C(=O)c2ccc(C(F)(F)F)nc2N)CC1` [compound 165], 25 to 100 nM.
As for `CC[C@H]1CN(c2nc(N)c(C(N)=O)nc2Cl)[C@H](C)CN1C1CCN(C(=O)c2ccc(Cl)nc2N)CC1` [compound 167], the figure is under 25 nM.
As for `CC[C@H]1CN(c2ncc(C(=O)NC(C)(C)C)nc2C)CCN1C1CCN(C(=O)c2ccc(Cl)nc2N)CC1` [compound 170], the figure is under 25 nM; as for `CC[C@H]1CN(c2nc(N)c(C(=O)NCCO)nc2C)CCN1C1CCN(C(=O)c2ccc(Cl)nc2N)CC1` [compound 171], under 25 nM.
The compound `CC[C@H]1CN(c2nc(N)c(C(=O)OC)nc2Cl)[C@H](C)CN1C1CCN(C(=O)c2ccc(Cl)nc2N)CC1` [compound 172] came in with an IC50 of under 25 nM.
For the compound `CC[C@H]1CN(c2ncc(C(=O)NC)nc2C(F)(F)F)CCN1C1CCN(C(=O)c2ccc(Cl)nc2N)CC1` [compound 173], the half-maximal inhibitory concentration (IC50) was under 25 nM.
`CC[C@H]1CN(c2ncc(C(=O)NC3(C)CC3)nc2C)[C@H](C)CN1C1CCN(C(=O)c2ccc(Cl)nc2N)CC1` [compound 174] registered an IC50 of under 25 nM.
`CC[C@H]1CN(c2nc(N)c(C(=O)NC3CC3)nc2C)[C@H](C)CN1C1CCN(C(=O)c2ccc(Cl)nc2N)CC1` [compound 175] gave an IC50 of under 25 nM.
As to `CC[C@H]1CN(c2ncc(C(=O)NC3CC3)nc2C)CCN1C1CCN(C(=O)c2ccc(C(F)(F)F)nc2N)CC1` [compound 176], the IC50 is under 25 nM.
`CC[C@H]1CN(c2nc(N)c(C(=O)NC3CC3)nc2Cl)[C@H](C)CN1C1CCN(C(=O)c2ccc(Cl)nc2N)CC1` [compound 177] registered an IC50 of under 25 nM.
Consider `CC[C@H]1CN(c2ncc(C(=O)NC3CC3)nc2C(F)(F)F)CCN1C1CCN(C(=O)c2ccc(Cl)nc2N)CC1` [compound 178], for which the IC50 was under 25 nM.
In turn, `CC[C@H]1CN(c2ncc(C(=O)NC(C)C)nc2C(F)(F)F)CCN1C1CCN(C(=O)c2ccc(Cl)nc2N)CC1` [compound 179] yielded an IC50 of under 25 nM.
As for `CC[C@H]1CN(c2ncc(C(=O)NCCO)nc2C(F)(F)F)CCN1C1CCN(C(=O)c2ccc(Cl)nc2N)CC1` [compound 180], the figure is under 25 nM; as for `CC[C@H]1CN(c2ncc(C(=O)NC3CCC3)nc2C(F)(F)F)CCN1C1CCN(C(=O)c2ccc(Cl)nc2N)CC1` [compound 181], under 25 nM.
